According to US12239643B2, “Therapeutic agent for inflammatory diseases, autoimmune diseases, fibrotic diseases, and cancer diseases” (MEIJI SEIKA PHARMA CO., LTD., priority 2018, dated 2025):

System: DSS-induced colitis, C57BL/6J mice
Test: DSS-induced mouse colitis model
Type: in vivo
Settings: oral once a day, DSS in drinking water
Protocol: Evaluation was carried out using male C57BL/6J mice (7 weeks of age). The mice were allowed to freely drink dextran sodium sulfate (DSS) dissolved in water for 5 days, and then allowed to freely drink water for 4 to 5 days. The test compound was dissolved or suspended in 0.5% w/v methylcellulose (0.5% MC) and orally administered once a day from the first day. The blank was a non-inflammation-induced group orally administered with 0.5% MC instead of the test compound and allowed to freely drink water instead of DSS, and the inflammation-induced control was a group orally administered with 0.5% MC instead of the test compound. The colitis inhibitory effect was evaluated by the disease activity index (DAI) score.

Q: Which “disease activity index (DAI) score” value does the source give for `CC(C)(O)C(F)(F)Oc1ccc(-c2nccs2)c2oc(N3CC4CC(C3)N4)nc12` [Example 248, 1-((2-(3,6-Diazabicyclo[3.1.1]heptan-3-yl)-7-(thiazol-2-yl)benzo[d]oxazol-4-yl)oxy)-1,1-difluoro-2-methylpropan-2-ol] here?
A: suppressed the DAI score at a lower concentration than that of apremilast
